Data taken from article PMC7613620, “Reaction hijacking of tyrosine tRNA synthetase as a whole-of-life-cycle antimalarial strategy” (Science (New York, N.Y.), 2022).
Where two headings read alike, the source gives them in different places.

Legend:
PfYRS = PfYRS (Plasmodium falciparum, UniProt Q8IAR7); assay: biochemical; type: binding
Protocol: (§1) 804 An intron was detected in the PftRNATyr sequence, that was not indicated in PlasmoDB. A T7 RNA
(§2) 805 polymerase promoter sequence was added to the 5’ end of the DNA sequence of P. falciparum and H.
(§3) 806 sapiens tRNATyr. This DNA template and its complementary strand were custom-synthesized by Sigma-
(§4) 807 Aldrich. Two oligonucleotides were annealed at 95°C for 5 min and the double-stranded DNA template
(§5) 808 was used for in vitro transcription. The transcription reaction was incubated at 37°C overnight. The reaction
(§6) 809 mixture consists of template DNA, T7 RNA polymerase and NTP mix as per manufacturer's instructions
(§7) 810 (HiScribe™ T7 Quick High Yield RNA Synthesis Kit, NEB). On the following day, the reaction mixture
(§8) 811 was treated with DNase I at 37°C for 15 min. tRNA was purified using RNA clean-up spin columns
(§9) 812 (Monarch® RNA Cleanup Kit, NEB) to remove contaminants from the transcription reaction.
(§10) 814 Differential scanning fluorimetry (DSF)
(§11) 815 PfYRS and HsYRS at 0.1 mg/ml were incubated with various substrates at 37°C for 1-3 h. PfYRS was
(§12) 816 assayed in 25 mM Tris, pH 8, 150 mM NaCl, 5 mM MgCl2 and 1 mM TCEP. HsYRS was assayed in 50
(§13) 817 mM Tris, pH 7.5, 150 mM NaCl, 50 mM KCl, 5 mM MgCl2 and 1 mM TCEP. SYPRO Orange (Sigma-
(§14) 818 Aldrich; 5,000X concentrate in DMSO) was added to the reaction mixture at a final concentration of 2.5X.
(§15) 819 25 µL of the sample was added into each well of a 96-well qPCR plate (Applied Biosystems). The plate
(§16) 820 was sealed and analysed using StepOnePlus Real-Time PCR system (Applied Biosystems). The samples
(§17) 821 were heated from 20°C to 90°C with a 1% continuous gradient. The thermal unfolding curve was plotted
(§18) 822 as the first derivative curve of the raw fluorescence values. The melting temperature (Tm), defined as the
(§19) 823 peak of the first derivative curve, was used to assess the thermal stability of protein-ligand complexes. KD
(§20) 824 values were calculated from DTm using the equation: ln(KD/[L]) = -131.5 x (∆Tm/Tm,apo) - 1.9, where [L]
(§21) 825 is the concentration of ligand and T is the temperature in Kelvin (40). […]

PfYRSS234C = PfYRSS234C (Plasmodium falciparum, UniProt Q8IAR7, S234C); assay: biochemical; type: binding
Protocol: as §1, §2, §3, §4, §5, §6, §7, §8, §9, §10, §11, §12, §13, §14, §15, §16, §17, §18, §19, §20, §21

HsYRS = molecular target: T1, HsYRS (Homo sapiens, UniProt P54577); assay: Differential scanning fluorimetry, HsYRS; type: binding
T1 construct: made in house; host or cells: E. coli BL21(DE3), pET-11a
T1 sequence (P54577 1-364): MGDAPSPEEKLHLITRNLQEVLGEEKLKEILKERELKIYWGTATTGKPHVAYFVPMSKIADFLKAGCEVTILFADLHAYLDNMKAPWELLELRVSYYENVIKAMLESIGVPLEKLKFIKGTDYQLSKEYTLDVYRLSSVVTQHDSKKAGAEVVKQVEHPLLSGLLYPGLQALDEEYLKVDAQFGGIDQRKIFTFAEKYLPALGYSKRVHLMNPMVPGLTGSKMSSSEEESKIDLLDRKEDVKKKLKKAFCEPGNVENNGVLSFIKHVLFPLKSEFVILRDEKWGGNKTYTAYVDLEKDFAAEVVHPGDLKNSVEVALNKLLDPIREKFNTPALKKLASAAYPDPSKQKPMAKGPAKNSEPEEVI
Protocol: This DNA template and its complementary strand were custom-synthesized by Sigma-
as §7, §16
The thermal unfolding curve was plotted
The melting temperature (Tm), defined as the
Reactions were conducted in 50 mM Tris-
Reactions were conducted in 50 mM Tris-HCL, pH 7.6,

P. falciparum (3D7) = P. falciparum (3D7) culture growth inhibition, 72 h; type: cell-based, Plasmodium falciparum; conditions: Plasmodium falciparum, read-out: Pf3D7 IC50(72h); P. falciparum 3D7, 72 h
Protocol: (1 picture or pasted object on this page, not shown here)
553 Sigma-Aldrich) for 48-72 h. For drug pulse assays, tightly synchronized parasites (1-1.5% parasitemia,
554 0.2% final hematocrit) were added to the plates and incubated for 3 h. Drugs were removed and the
555 parasitemia assessed in the trophozoite stage of the next cycle.
557 Compounds were tested against a range of drug resistant field isolates and laboratory strains using a
558 modified [3H]-hypoxanthine incorporation assay, as previously reported (46). Field isolates 7G8, Cam3.1,
559 Dd2, K1, TM90C2B and NF54 were obtained from MR4 (www.beiresources.org).
561 Mammalian cell culture experiments
562 The HepG2 (Human hepatocyte carcinoma) cell line was procured from ATCC (American Type
563 Culture Collection, Manassas, USA; HB-8065) and viability assessed using Cell Titer-GLO luminescent
564 cell viability assay reagents (Promega, catalogue number: G7570) (47, 48). For the assay, 2000 cells/well
565 were plated in 384-well plates 24 h prior to the experiment and incubated at 37°C in a CO2 incubator. The
566 medium was removed and cells were treated with fresh medium containing either vehicle (0.5% DMSO)
567 or serially diluted test compounds or doxorubicin (1.3 nM to 25 µM) in a final volume of 50 µl/well and
568 further incubated for 72 h at 37°C in a CO2 incubator.
569 were treated with 5 µl of 1% Triton X-100 (final assay conc. 0.1%). Following incubation, 25 µl of medium
570 was discarded and 25 µl of Cell Titer-GLO reagent was added to each well and the plate was kept on a plate
571 shaker for 15 min at 25°C with shaking at 300 rpm. Luminescence signals were measured in a Spectramax
572 M5 reader (Molecular Devices).
574 H1650 is a human lung cancer derived ATG7-null cell line (49) that can be used to assess effects on targets
576 adenocarcinoma; bronchoalveolar carcinoma). Other cells lines used are: H460 (NCI-H460; human lung;
577 carcinoma; large cell lung cancer; ATCC: HTB-177); and HCT116 (human colon; colorectal carcinoma;
578 ATCC: CCL-247; Lot : 5056139). Each of the cell lines was received from the American Type Culture
579 Collection (ATCC) and passaged twice before freezing. Cells were cultured in the presence or absence of
580 inhibitors and cell viability was assessed by comparing the ATP content in compound-treated wells with
581 that in DMSO-treated wells as previously described (11).
583 HeLa cells (human cervical adenocarcinoma; genome sequenced (Garvin Institute, Australia) and verified

PfYRS knockdown line = assay: Growth inhibition of aptamer-regulatable PfYRS knockdown line (luciferase, 72 h); type: cell-based, Plasmodium falciparum; conditions: for IC50: Plasmodium falciparum, read-out: IC50 against the PfYRS knockdown line (control compounds)
From the text: 674 Generation and analysis of PfYRS knock-down transfectants
675 A conditional regulatable line for the cytosolic PfYRS (PF3D7_0807900) was generated by integrating the
676 gene regulatable system, TetR-DOZI-RNA aptamer module at the 3'-end of the target gene, in P. falciparum
677 parasites using CRISPR-Cas9 and homology-driven repair (55, 56). A line harbourbing an aptamer-
678 regulatable fluorescent protein (eYFP) integrated in the cg6 locus is used as the control (55). Transfection
679 into parasites was carried out by preloading RBCs with the donor vector as described previously (57).
680 Briefly, 50 μg of purified plasmid DNA was mixed with human RBCs and subjected to 8 square wave
681 electroporation pulses of 365 V for 1 ms each, separated by 0.1 s in a 0.2 cm cuvette. The plasmid DNA
682 preloaded cells were inoculated with NF54 expressing Cas9 and T7 RNA polymerase. […]
696 Stock solutions of ML901, DHA or borrelidin (Cayman Chemicals) were dispensed into 96-well U-bottom
697 BD Falcon™ plates and serially diluted in complete medium to yield final concentrations ranging from 20-
698 0.08 nM. Synchronous ring-stage YRScyt conditional knockdown line and the aptamer-regulatable control
699 line in varying aTc concentrations (high = 50 or 500 nM, low = 1 nM, and no aTc) were distributed into
700 the drug plate. Lowest drug treatment and a lethal dose of chloroquine (200 nM) served as reference
701 controls. Growth inhibition was analysed after 72 h using the Renilla-Glo(R) Luciferase Assay System (ref
702 no E2750 Promega) and the GloMax® Discover Multimode Microplate Reader (Promega), and IC50 values
703 were obtained from corrected dose-response curves using GraphPad Prism (version 8; GraphPad Software). […]
706 CRISPR/Cas9 was used to generate parasites encoding the S234C mutation in exon 2 of PfYRS, as shown
707 in Suppl Figure 6. Two guide RNAs (gRNA1: […] and gRNA2:
708 […]) were selected using Benchling (benchling.com), and cloned into the
709 pDC2-coCas9-gRNA plasmid essentially as described previously (58). A donor template of 645 bp,
710 encompassing the majority of the 708 bp exon 2, was synthesized (ThermoFisher) and cloned into the
711 AatII/EcoRI sites of both the pDC2-coCas9-gRNA1 and pDC2-coCas9-gRNA2 plasmids. In addition to
712 the TCC>TGC (S234C) mutation, additional silent shield mutations were introduced to prevent gRNA-
713 Cas9 complex binding, as shown in Suppl Figure 6. Ring-stage P. falciparum parasites (Dd2 strain) at 10%
714 parasitemia (150 µL of packed cells) were transfected with 50 µg of plasmid DNA using a BioRad Gene
715 Pulser II (310 V, 950 µF), and selected with 5 nM WR99210 (Jacobus Pharmaceuticals) for 8 days, after
716 which culture was continued without drug pressure until transfectants were obtained. Clones of the
717 PfYRSS234C mutant parasites were isolated by limiting dilution and verified by Sanger sequencing.
719 Protein translation assay
720 P. falciparum Cam 3.II_Rev (25) schizont- (43-48 h p.i.) infected RBCs were pre-incubated with inhibitor
Using a modification of a published procedure (14), the
722 cells were labelled with O-propargyl-puromycin (OPP; 4 µM) for 1 h, washed 3x (PBS +3% serum) and
723 then fixed for 10 minutes (4% formaldehyde/0.02% glutaraldehyde in PBS). The click reaction was
724 performed for 1 h in the presence of CuSO4 (0.1 mM), THPTA (0.5 mM) and sodium ascorbate (5 mM) to
725 bring about azide-alkyne cycloaddition to Alexa Fluor 488 azide (0.1 µM). Flow cytometry was performed
726 using the FITC and Cy™5.5 channels to detect the Alexa Fluor 488 and PI, respectively.
729 Cam 3.II_Rev (25) trophozoite-infected RBCs (25-30 h p.i.) were incubated with inhibitor for 3 h at 10%
730 hematocrit and 5% parasitemia. The RBC pellet was washed 3 x in PBS + cOmplete. Cells were centrifuged
731 at 380 x g for 5 min and the pelleted cells lysed by resuspension in PBS + 0.05% saponin for 5 min on ice.

PfYRSS234C, sequence (Q8IAR7 whole entry S234C): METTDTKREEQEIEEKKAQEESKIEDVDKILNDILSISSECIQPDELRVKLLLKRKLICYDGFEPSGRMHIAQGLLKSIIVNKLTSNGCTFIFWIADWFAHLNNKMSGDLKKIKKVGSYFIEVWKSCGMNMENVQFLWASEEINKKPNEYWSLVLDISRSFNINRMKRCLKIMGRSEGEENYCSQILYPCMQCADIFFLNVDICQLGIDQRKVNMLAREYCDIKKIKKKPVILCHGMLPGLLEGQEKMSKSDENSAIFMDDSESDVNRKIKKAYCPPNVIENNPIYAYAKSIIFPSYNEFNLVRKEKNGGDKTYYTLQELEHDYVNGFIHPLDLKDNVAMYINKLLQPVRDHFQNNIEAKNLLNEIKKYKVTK
PfYRS, sequence (Q8IAR7 entry or part of it): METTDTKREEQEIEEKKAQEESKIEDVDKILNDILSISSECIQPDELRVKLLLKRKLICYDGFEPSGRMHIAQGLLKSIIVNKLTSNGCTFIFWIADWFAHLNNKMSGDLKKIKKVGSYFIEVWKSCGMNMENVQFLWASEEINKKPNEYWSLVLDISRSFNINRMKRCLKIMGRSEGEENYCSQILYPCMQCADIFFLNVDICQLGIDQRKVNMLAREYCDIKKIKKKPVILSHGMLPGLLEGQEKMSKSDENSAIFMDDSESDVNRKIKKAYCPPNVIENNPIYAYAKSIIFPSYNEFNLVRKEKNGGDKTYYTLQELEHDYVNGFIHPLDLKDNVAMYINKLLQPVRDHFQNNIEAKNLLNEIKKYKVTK

| Compound | Tm (PfYRS; PfYRS 2.3 μM, after incubation at 37°C for 3 h) [oC] | DTm (PfYRS; PfYRS, versus apo) [oC] | Kd (PfYRS; PfYRS, estimated from DSF by empirical correlation of DTm and KD, read-out: Apparent KD*) [nM] | Tm (PfYRSS234C; PfYRSS234C 2.3 μM, after incubation at 37°C for 3 h) [oC] | DTm (PfYRSS234C; PfYRSS234C, versus apo) [oC] | Kd (PfYRSS234C; PfYRSS234C, estimated from DSF by empirical correlation of DTm and KD, read-out: Apparent KD*) [nM] | Tm (HsYRS; HsYRS 2.3 μM, after incubation at 37°C for 3 h) [oC] | DTm (HsYRS; HsYRS, versus apo) [oC] | Kd (HsYRS; HsYRS, estimated from DSF by empirical correlation of DTm and KD, read-out: Apparent KD*) [nM] | IC50 (P. falciparum (3D7)) [nM] | IC50 (PfYRS knockdown line; high aTc (500 nM)) [nM] | IC50 (PfYRS knockdown line; low aTc (1 nM)) [nM] | IC50 (PfYRS knockdown line; no aTc) [nM] | Fold change in IC50 (high aTc/ no aTc), PfYRS knockdown line (control compounds) (PfYRS knockdown line; high aTc 500 nM) |
| --- | --- | --- | --- | --- | --- | --- | --- | --- | --- | --- | --- | --- | --- | --- |
| Nc1ncnc2c1ncn2[C@@H]1O[C@H](COP(=O)(O)OC(=O)[C@@H](N)Cc2ccc(O)cc2)[C@@H](O)[C@H]1O [AMP-Tyr] | 62.6 ± 0.2 | 12.4 | 2.2 | 57.1 ± 0.3 | 6.5 | 24 | 53.3 ± 0.2 | 2.8 | 116 |  |  |  |  |  |
| C[C@H]1[C@@H](O)O[C@@H]2O[C@@]3(C)CC[C@H]4[C@H](C)CC[C@@H]1[C@@]24OO3 [DHA, Dihydroartemisinin] |  |  |  |  |  |  |  |  |  | 2.9 ± 0.2 | 1.1 ± 0.3 | 1.6 ± 0.5 | 1.2 ± 0.4 | no change |
